Consider 4 compounds from patent publication EP2420255A2, “Polypeptide inhibitors of urokinase type plasminogen activator” (Ecole Polytechnique Federale De Lausanne (EPFL), priority 2010, dated 2012).

Where two headings read alike, the source gives them in different places. Numbered stars: 1 amine (or outer) side, 2 acyl side, 3 side chain; on linkers, the order of the positions; unused ones are H or OH. Bridge positions count the residues as written; N and C are the ends. Ends that are not written are not given here. Peptide text beside a SMILES is read from it. TBMB = c1c(C[*:1])cc(C[*:3])cc1C[*:2]

The target in series [1] is T1, uPA (Homo sapiens, UniProt P00749). Particulars: literature; cited from earlier work.
The test system of series [2] is thrombin. Particulars: literature; cited from earlier work.
For series [3], the target named is tPA (Homo sapiens, UniProt P00750). Conditions: literature; cited from earlier work.
Chain of tPA (P00750 36-562, species assumed): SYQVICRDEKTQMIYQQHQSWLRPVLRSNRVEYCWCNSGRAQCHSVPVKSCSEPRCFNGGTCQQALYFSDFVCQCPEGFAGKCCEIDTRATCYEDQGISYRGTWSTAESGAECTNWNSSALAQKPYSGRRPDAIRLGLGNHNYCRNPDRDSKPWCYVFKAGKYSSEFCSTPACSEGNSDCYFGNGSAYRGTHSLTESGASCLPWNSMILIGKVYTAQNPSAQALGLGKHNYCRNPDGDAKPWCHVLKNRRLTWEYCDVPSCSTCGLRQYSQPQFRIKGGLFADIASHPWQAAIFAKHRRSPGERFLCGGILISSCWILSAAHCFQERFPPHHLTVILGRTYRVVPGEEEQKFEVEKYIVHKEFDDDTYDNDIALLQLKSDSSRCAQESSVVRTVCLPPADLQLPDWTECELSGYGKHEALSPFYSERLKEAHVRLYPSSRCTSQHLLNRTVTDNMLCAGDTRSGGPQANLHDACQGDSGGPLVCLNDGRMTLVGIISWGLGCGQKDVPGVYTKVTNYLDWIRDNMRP
The subject of series [4] is factor Xa. Particulars: literature; cited from earlier work.
In series [5] the target is plasma kallikrein (Homo sapiens, UniProt P03952). Conditions: literature; cited from earlier work.
Chain of plasma kallikrein (P03952 391-638 limits assumed, species assumed): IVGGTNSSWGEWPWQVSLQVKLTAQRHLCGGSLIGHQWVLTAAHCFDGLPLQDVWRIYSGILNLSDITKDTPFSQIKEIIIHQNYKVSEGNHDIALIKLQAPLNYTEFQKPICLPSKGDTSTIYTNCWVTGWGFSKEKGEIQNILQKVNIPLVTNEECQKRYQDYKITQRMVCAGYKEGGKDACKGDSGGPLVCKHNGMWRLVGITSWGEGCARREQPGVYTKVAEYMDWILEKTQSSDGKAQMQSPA
Chain of plasma kallikrein (P03952 20-390 partner limits assumed, species assumed): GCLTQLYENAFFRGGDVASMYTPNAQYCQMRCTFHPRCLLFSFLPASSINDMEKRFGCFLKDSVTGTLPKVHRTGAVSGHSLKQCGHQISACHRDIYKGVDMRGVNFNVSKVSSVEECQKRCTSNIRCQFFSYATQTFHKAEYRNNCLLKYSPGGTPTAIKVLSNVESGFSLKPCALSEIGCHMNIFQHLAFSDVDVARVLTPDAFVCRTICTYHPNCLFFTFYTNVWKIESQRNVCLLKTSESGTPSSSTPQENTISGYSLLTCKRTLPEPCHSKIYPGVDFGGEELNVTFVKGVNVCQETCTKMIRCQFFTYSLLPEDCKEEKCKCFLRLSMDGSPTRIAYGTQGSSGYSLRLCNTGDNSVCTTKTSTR
In series [6] the test system is murine lung carcinoma model. Particulars: literature; cited from earlier work.
For series [7], the target named is T1, uPA. Particulars: literature, cited from earlier work.
Series [8] concerns MDA-MB-231 cells. In words: Cell viability assay (CellTiter-Glo, ATP concentration). Format: cell-based, human. Particulars: 24 hrs, UK18 1-100 µM. The protocol:
MDA-MB-231 human breast adenocarcinoma cells (ATCC) were cultured in RPMI medium (RPMI-1640 containing 25 mM HEPES and L-glutamine; NEAA, 100X Stock, and 1 unit/ml penstrep, 20'000 units/ml penicillin and 20'000 units/ml streptomycin stock, Lonza, Visp, Switzerland) supplemented with 5% v/v fetal calf serum (FCS, Lonza) at 37 °C in a humidified 5% CO2/95% air atmosphere.
The effect of UK18 on the MDA-MB-231 cell viability was measured by using the CellTiter-Glo Luminescent Cell Viability Assay (Promega, Madison, WI, USA). The assay measures the number of viable cells in culture based on the ATP concentration. 200 µL of 2.0 x 10^5 MDA-MB-231 cells/ml in RPMI media (FCS-free) supplemented with 0.2% w/v BSA were inoculated at a density of 4.0 x 10^4 cells per well in 96-well opaque walled polystyrene plate tissue culture treated (Corning Incorporated, Corning, NY, USA) for 24 hrs at 37 °C in a humidified 5% CO2/95% air atmosphere. The culture supernatant was then removed and 100 µl of new RPMI media (FCS-free) supplemented with 0.2% w/v BSA containing different three-fold dilution concentrations of UK18 (1, 3.3, 10, 33 and 100 µM) were added to the cells and the plate incubated for 24 hrs at 37 °C in a humidified 5% CO2/95% air atmosphere. […] The luminescence signal was finally recorded using a Tristar LB 941 microplate reader (Berthold Technologies, Bad Wildbad, Germany). […]
A general note: ATP-based viability assays read luminescence as a measure of living cells.

For series [9], the target named is T1, uPA. As to the kind of experiment: Activity determination of chemically synthesized inhibitors, residual protease activity. On the set-up: human uPA (UPA-LMW, from human urine, 33 kDa); purchased Molecular Innovations, Novi, MI, USA UPA-LMW; host or cells: human urine. Particulars: synthetic peptide-TBMB conjugate, pH 7.4, 25°C. In kind it is biochemical. The protocol: (§1) Peptides with a free amine at the N-terminus and an amide at the C-terminus were chemically synthesized on a 50 mg to 1 g scale by solid phase chemistry (JPT Peptide Technologies, Berlin, Germany or GL Biochem Ltd., Shanghai, China). The crude peptides (1 mM) in 1 ml 5% v/v DMSO, 65% v/v 20 mM NH4HCO3, pH 8.0 and 30% v/v ACN, were reacted with TBMB (1.2 mM) for 1 hr at 30 °C. The reaction product was purified by preparative reversed-phase high performance liquid chromatography (HPLC) system (PrepLC 4000, Waters, Millford, MA, USA) and a Vydac C18 (218TP) column (22 x 250 mm) (Grace & Co., USA). At a flow rate of 20 ml/min, a linear gradient was applied with a mobile phase composed of eluant A (0.1% v/v aqueous trifluoroacetic acid (TFA) solution, 99.9 % v/v H2O) and eluant B (94.9% v/v ACN, 5% v/v H2O and 0.1 % v/v TF A). The purified peptides were freeze-dried and dissolved in H2O for activity measurements.
(§2) Residual activities were measured in buffer containing 10 mM Tris-Cl, pH 7.4, 150 mM NaCl, 10 mM MgCl2, 1mM CaCl2, 0.1% w/v BSA, 0.01% v/v Triton-X100 and 5% v/v DMSO in volume of […]. […] Absorption and fluorescence intensity were measured with a Spectramax absorption plate reader (recording at 410 nm; Molecular Devices, USA) and a Spectramax Gemini fluorescence plate reader (excitation at 355 nm, emission at 460 nm; Molecular Devices, USA), respectively. […]

The target in series [10] is T2, Murine uPA (Mus musculus, UniProt P06869).
T2 construct: mouse uPA (MUPA-LMW, recombinantly produced in insect cells, 31 kDa); purchased Molecular Innovations, Novi, MI, USA MUPA-LMW; host or cells: insect cells
T2 sequence (P06869 180-433 limits assumed): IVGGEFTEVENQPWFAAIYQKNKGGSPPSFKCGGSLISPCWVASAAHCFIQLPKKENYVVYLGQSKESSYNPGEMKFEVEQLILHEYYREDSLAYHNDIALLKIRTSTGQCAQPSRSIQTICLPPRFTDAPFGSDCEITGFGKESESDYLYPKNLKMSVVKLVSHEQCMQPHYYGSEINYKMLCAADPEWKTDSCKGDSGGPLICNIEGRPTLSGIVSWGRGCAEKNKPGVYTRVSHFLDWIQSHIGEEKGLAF
As to the kind of experiment: Specificity determination of chemically synthesized inhibitors, residual protease activity. In kind it is biochemical. Conditions: murine uPA versus human uPA. The procedure: as §1, §2

Broadly, the Ki is a measure of affinity in units of concentration, obtained from inhibition or displacement. `N=C(N)c1ccc(CNC(=O)[C@H](CO)NC(=O)[C@@H](CO)NS(=O)(=O)Cc2ccccc2)cc1` [CJ-463, benzylsulfonyl-D-Ser-Ser-4-amidinobenzylamide]: in series [1], the inhibitory constant (Ki) was 20 nM. Besides, the inhibition result in [2], in [3], in [4] and in series [5] was “does not inhibit significantly” throughout. Besides, the “primary tumour growth and metastasis formation” value in series [6] was “reduce primary tumour growth and metastasis formation”.

For “CSWRGLENHRMC (cysteine pairing not given here) [upain-1]”, the inhibitory constant (Ki) in series [7] (at pH 6.0) was 6700 nM; in series [7] (at physiological pH) it was 29900 nM.

Usually IC50 stands for the concentration that gives 50% inhibition. A high value points to weaker potency. As to `CC(C)[C@@H]1NC(=O)[C@H](CCC(=O)O)NC(=O)[C@H](Cc2ccc(O)cc2)NC(=O)[C@H](CCCN=C(N)N)NC(=O)[C@H](CO)NC(=O)[C@@H](NC(=O)[C@H](C)N)CSCc2cc3cc(c2)CSC[C@H](NC(=O)[C@H](CC(=O)O)NC1=O)C(=O)N[C@@H](CCCN=C(N)N)C(=O)NCC(=O)N[C@@H](CCCN=C(N)N)C(=O)NCC(=O)N[C@@H](CO)C(=O)N[C@@H](C)C(=O)N[C@H](C(=O)NCC(N)=O)CSC3` [UK18] (H-ACSRYEVDCRGRGSACG-NH2; linker 2-9-16 via TBMB), in series [8], the cell viability entry was “not toxic”. Moreover, in series [9], the IC50 turned out to be 47.2 nM. For the same compound, the Ki in [9] (corresponding to the IC50) worked out at 30.1 nM.

In the case of `CC(C)[C@@H]1NC(=O)[C@H](CCC(=O)O)NC(=O)[C@H](Cc2ccc(O)cc2)NC(=O)[C@H](CCCNC(=N)N)NC(=O)[C@H](CO)NC(=O)[C@@H](NC(=O)[C@H](C)N)CSCc2cc3cc(c2)CSC[C@H](NC(=O)[C@H](CC(=O)O)NC1=O)C(=O)N[C@@H](CCCNC(=N)N)C(=O)NCC(=O)N[C@@H](CCCNC(=N)N)C(=O)NCC(=O)N[C@@H](CO)C(=O)N[C@@H](C)C(=O)N[C@H](C(=O)NCC(N)=O)CSC3` [UK18] (H-ACSRYEVDCRGRGSACG-NH2; linker 2-9-16 via TBMB), the “Ki higher than the Ki of human uPA” value in series [10] was “around 1400 times”.
